{
  "source": "paper PMC4613240",
  "about": "“A Series of New Ligustrazine-Triterpenes Derivatives as Anti-Tumor Agents: Design, Synthesis, and Biological Evaluation” (International Journal of Molecular Sciences, 2015)",
  "key": {"[1]": {"system": "HepG2 cells", "test": "Morphological observation using AO/EB double staining", "format": "cell-based, human", "details": "HepG2, 2, 4, 8 μM for 72 h", "protocol": "To further characterize 4a-induced HepG2 cell apoptosis, the changes in cell morphology of the treated cells were determined using AO/EB double staining. AO is a vital dye that stains both live and dead cells as it can penetrate normal cell membrane. EB stains only cells that have lost their membrane integrity. Cells that stained green indicate viable cells, yellow indicate early apoptosis and orange/red indicate late apoptosis.\nApoptotic study was performed using AO/EB double staining. HepG2 cells were seeded in six well plates at a density of 1 × 10^4 cells/well and allowed to grow for 24 h. Then the cells were incubated in the presence of 4a at various concentrations (2, 4, 8 μΜ) at 37 °C and 5% CO2 for 72 h. After the treatment period, cells were collected and centrifuged; then the cells were suspended in phosphate-buffer saline (PBS) and centrifuged again. The liquid was removed; the cells were suspended in PBS. Then AO/EB (AO/EB, Sigma, USA) solution (1:1 v/v) was added to the cell suspension in a final concentration of 100 μg/mL. Cell morphologies were assessed under a fluorescent microscope."}, "[2]": {"system": "HepG2 cells", "test": "Morphological observation using Giemsa staining", "format": "cell-based, human", "details": "HepG2, 2, 4, 8 μM for 72 h", "protocol": "The morphological changes in HepG2 cells were examined by Giemsa staining. HepG2 cells were seeded in 6-well plates. The cell density was adjusted to 4 × 10^3/well and incubated overnight. After 72 h reaction with certain concentrations of 4a (2, 4, 8 μM), cells were washed with PBS and fixed with cold methanol for 10 min. Methanol was discarded and cells were air-dried. Then fixed cells were stained with 6% Giemsa (Giemsa, Molecular Probes/Invitrogen Life Technologies, Carlsbad, CA, USA) solution for 5 min, washed with water and dried. The cell morphological changes were observed and photographed under a light microscope."}, "[3]": {"system": "HT-29 (human colon carcinoma)", "test": "MTT cytotoxicity assay, HT-29", "format": "cell-based", "details": "maximal tested concentration 20.0 μM", "protocol": "(§1) The cytotoxicity of ligustrazine-triterpenes derivatives was evaluated on five tumor cell lines (Bel-7402, HepG2, HT-29, Hela, and MCF-7) using the standard MTT assay. In the study, the antineoplastic drug cisplatin (DDP) was selected as the positive control. The MDCK cell line was used to test the toxicity of the ligustrazine-triterpenes derivatives and DDP.\n(§2) The cell lines Bel-7402 (human hepatocellular carcinoma), HepG2 (human hepatocellular carcinoma), HT-29 (human colon carcinoma), Hela (human cervical cancer), MCF-7 (human breast cancer) were included in this study. All these cell lines were provided by the Chinese Academy of Medical Sciences & Peking Union Medical College. Cultures were maintained as monolayers in RPMI 1640 supplemented with 10% (v/v) heat inactivated fetal bovine serum and 1% (v/v) enicillin/streptomycin (Thermo Technologies, New York, NY, USA) at 37 °C in a humidified atmosphere with 5% CO2. The ligustrazine derivatives under study were dissolved in DMSO (Sigma, St. Louis, MO, USA) and added at required concentrations to the cell culture. Cells incubated without the preparations served as the control.\n(§3) The cytotoxicity of the compounds was evaluated on five cancer cell lines (Bel-7402, HepG2, HT-29, Hela, MCF-7) by the standard MTT assay. In short, exponentially growing cells were seeded into 96-well plates at a density 10^4 cells/mL. The plates were incubated at 37 °C in a humidified 5% CO2 atmosphere. Cells were allowed to adhere to the surface for 24 h and then treated with serial dilutions of the compounds for 72 h. Later, aliquots of [3-(4,5-dimethylthiazol-2-yl)-2,5-diphenyltetrazolium bromide] (MTT) solution (20 μL, 5 mg/mL) were added to each well and the incubation was continued for an additional 4 h. Then the supernatant medium was thrown away. The dark blue formazan crystals formed within the healthy cells were solubilized with DMSO (150 μL) and the absorbance was measured in a plate reader (BIORAD 550 spectrophotometer, Bio-rad Life Science Development Ltd., Beijing, China) at 490 nm. Wells containing no drugs were used as control group. The IC50 values were defined as the concentration of compounds that produced a 50% reduction of surviving cells and calculated using Logit-method. Tumor cell growth inhibitory rate was calculated in the following Equation (1): % inhibition = (1 − Sample group OD/Control group OD) × 100% (1)"}, "[4]": {"system": "Bel-7402 (human hepatocellular carcinoma)", "test": "MTT cytotoxicity assay, Bel-7402", "format": "cell-based", "details": "maximal tested concentration 20.0 μM", "protocol": "as §1, §2, §3"}},
  "data": [
    {"smiles": "C=C(C)[C@@H]1CC[C@]2(C(=O)OCc3nc(C)c(C)nc3C)CC[C@]3(C)C(CCC4[C@@]5(C)CC[C@H](O)C(C)(C)C5CC[C@]43C)C12", "note": "(stereo partly drawn) [Compound 4a, 3β-Hydroxy-lup-20(29)-ene-28-oic acid-3,5,6-trimethylpyrazin-2-methyl ester]", "values": [
      {"measurement": "cell morphology after AO/EB double staining", "setting": "[1]", "value": "increased number of orange- and red-stained cells in a dose dependent manner"},
      {"measurement": "cell morphology after Giemsa staining", "setting": "[2]", "value": "evident nuclear fragmentation, chromatin condensation in a dose dependent manner"},
      {"measurement": "IC50", "setting": "[3]; 72 h", "value": 5.23, "unit": "µM"},
      {"measurement": "IC50", "setting": "[3]; Homo sapiens, HT-29, 72 h", "value": "< 5.23", "unit": "µM"},
      {"measurement": "IC50", "setting": "[4]; 72 h", "value": 4.19, "unit": "µM"},
      {"measurement": "IC50", "setting": "[4]; Homo sapiens, Bel-7402, 72 h", "value": "< 5.23", "unit": "µM"}
    ]}
  ]
}
